From ChEMBL document CHEMBL5512668, “Macrocyclic Azapeptide Nitriles: Structure-Based Discovery of Potent SARS-CoV-2 Main Protease Inhibitors as Antiviral Drugs” (J Med Chem, 2024)

Assays:
[1] = target: T1, Replicase polyprotein 1ab (Severe acute respiratory syndrome coronavirus 2, UniProt P0DTD1)
[2] = Stability of compound in DMEM assessed as time required for 50% compound degradation at 100 uM incubated for 24 hrs by HPLC method
[3] = target: T1, Replicase polyprotein 1ab; remark: listed apart in the source
[4] = in vitro; conditions: male, human, plasma
[5] = system: SARS-CoV-2; assay: microbe, parasite or virus in culture; conditions: Severe acute respiratory syndrome coronavirus 2, JPN/TY/WK-521, VeroE6/TMPRSS2
[6] = system: SARS-CoV-2; assay: microbe, parasite or virus in culture; conditions: Severe acute respiratory syndrome coronavirus 2, JPN/TY/WK-521, VeroE6/TMPRSS2, 24 h, read-out: INH
[7] = target: Cathepsin S (Homo sapiens, UniProt P25774); assay: Inhibition of recombinant human cathepsin S using Z-Phe-Arg-AMC as substrate incubated for 60 mins
Cathepsin S, sequence (P25774 whole entry): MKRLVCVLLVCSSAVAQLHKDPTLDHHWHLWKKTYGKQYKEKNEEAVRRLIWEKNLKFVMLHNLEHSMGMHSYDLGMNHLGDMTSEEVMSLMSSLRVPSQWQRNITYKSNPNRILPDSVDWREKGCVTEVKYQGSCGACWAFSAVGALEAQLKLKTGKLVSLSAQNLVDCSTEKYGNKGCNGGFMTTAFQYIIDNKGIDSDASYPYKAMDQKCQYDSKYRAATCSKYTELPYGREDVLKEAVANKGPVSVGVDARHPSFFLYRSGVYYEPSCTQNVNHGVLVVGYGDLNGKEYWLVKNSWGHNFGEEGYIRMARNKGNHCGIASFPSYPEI

[8] = system: SARS-CoV-2; assay: microbe, parasite or virus in culture; conditions: Severe acute respiratory syndrome coronavirus 2, JPN/TY/WK-521, VeroE6/TMPRSS2, 24 h, read-out: INH; remark: listed apart in the source
[9] = target: Procathepsin L (Homo sapiens, UniProt P07711); assay: Inhibition of human cathepsin L using Z-Phe-Arg-pNA as substrate incubated for 60 mins
Procathepsin L, sequence (P07711 whole entry): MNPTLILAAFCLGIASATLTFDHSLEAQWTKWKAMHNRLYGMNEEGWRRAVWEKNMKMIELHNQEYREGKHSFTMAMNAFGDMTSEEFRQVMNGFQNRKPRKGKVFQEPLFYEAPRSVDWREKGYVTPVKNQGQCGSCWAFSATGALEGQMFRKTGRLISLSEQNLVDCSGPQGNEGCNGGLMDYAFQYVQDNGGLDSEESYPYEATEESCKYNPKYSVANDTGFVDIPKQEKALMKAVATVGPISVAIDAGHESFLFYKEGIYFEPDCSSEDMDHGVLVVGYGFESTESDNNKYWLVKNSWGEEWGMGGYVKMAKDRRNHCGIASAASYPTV

[10] = system: SARS-CoV-2; assay: microbe, parasite or virus in culture; conditions: Severe acute respiratory syndrome coronavirus 2, JPN/TY/WK-521, VeroE6/TMPRSS2; remark: listed apart in the source
[11] = system: SARS-CoV-2; assay: microbe, parasite or virus in culture; conditions: Severe acute respiratory syndrome coronavirus 2, WK-521, Vero C1008

SMILES | IC50 [1] [µM] | Ki [3] [µM] | half-life at 100 µM [4] [h] | Ki [7] [µM] | further results
CN1C(=O)[C@H](Cc2ccccc2)N(C(=O)COc2ccc(Cl)cc2Cl)CCCOc2c(Cl)cccc2CN1C#N | 0.038 | 0.0268 | 1.92 |  | half-life at 24 h, 100 µM [2]: 1.76 h; EC50 [5]: 2.14 µM; inhibition at […] [6]: 58%
CN1C(=O)[C@H](CCc2ccccc2)NC(=O)COCCOc2ccc(F)cc2CN1C#N | 1.47 |  |  | 0.179 | 
CN1C(=O)[C@H](Cc2ccccc2)N(C(=O)COc2ccc(Cl)cc2Cl)CCCOc2ccc(Cl)c(F)c2CN1C#N | 0.057 |  |  | 1.82 | 
CN1C(=O)[C@H](Cc2ccccc2)N(C(=O)CNC(=O)c2cccs2)CCCOc2c(Cl)cccc2CN1C#N | 0.003 | 0.00229 | 3 | 0.47 | half-life at 24 h, 100 µM [2]: 7.65 h; inhibition at 3.33 µM [8]: 63%; EC50 [5]: 2.55 µM
CN1C(=O)[C@H](Cc2ccccc2)N(C(=O)[C@@H](NC(=O)c2cccs2)C(C)(C)C)CCCOc2ccc(Cl)c(F)c2CN1C#N |  |  |  | 3.02 | 
CN1C(=O)[C@H](Cc2ccccc2)NC(=O)COCCOCCOc2ccc(F)cc2CN1C#N | 2.61 |  |  | 0.765 | 
CCN(CC)CCOC(=O)c1ccc(N)cc1.Cl [PROCAINE HYDROCHLORIDE] |  |  | 0.103 |  | 
COc1ccc([C@@H]2Sc3ccccc3N(CCN(C)C)C(=O)[C@@H]2OC(C)=O)cc1.Cl [DILTIAZEM HYDROCHLORIDE] |  |  | 13.1 |  | 
CN1C(=O)[C@H](CCc2ccccc2)NC(=O)COCCOCCOc2ccc(F)cc2CN1C#N |  |  |  | 0.662 | 
CN(C(=O)[C@H](Cc1cccs1)NC(=O)[C@@H](NC(=O)c1cccs1)C(C)(C)C)N(C#N)Cc1cccc(Cl)c1F | 0.009 | 0.00645 |  |  | Ki [9]: 0.13 µM
CC(C)(C)[C@H](NC(=O)C(F)(F)F)C(=O)N1C[C@H]2[C@@H]([C@H]1C(=O)N[C@H](C#N)C[C@@H]1CCNC1=O)C2(C)C |  |  |  |  | inhibition at 3.33 µM [8]: 93%; EC50 [5]: 0.86 µM; IC50 [10]: 0.16 µM; IC50 [11]: 0.94 µM
CN(C(=O)[C@H](Cc1ccccc1)NC(=O)[C@@H](NC(=O)c1cccs1)C1CCCCC1)N(C#N)Cc1ccc(Cl)cc1 | 0.018 | 0.013 |  |  | Ki [9]: 0.0251 µM
